This note sets out measurements from US12649709B2, “Naphthoquinone-based chalcone derivatives and uses thereof” (priority 2020, dated 2026).

For assay [1], the system named is Autobioluminescent Human Epithelial Kidney cells (HEK-293). The assay is described as follows: Cellular metabolic activity, autobioluminescent kidney cells. The class given is cell-based. The settings on record: FIG. 7A; Hematin:RLS3 1:1,000; 0.5 pM-5 nM RLS3; 14-hour period post-exposure; kidney cell model. The method, then:
(§1) Autobioluminescent Human Epithelial Kidney cells (HEK-293, 490 Biotech) and Human Liver cells (Hep-G2, 490 Biotech) and Human primary astrocytes (490 Biotech) were seeded at 10,000 kidney cells/well, or 50,000 liver cells/well, in 96-well tissue culture treated plates (Falcon) in growth media. The growth media consists of the following: DMEM (Hyclone), 10% heat-inactivated FBS (Gibco), 1% Sodium Pyruvate (HyClone), 1% antibiotic/antimyotic (Hyclone) and 100 μg G418/ml (Gibco). Cells were grown for 2 days prior to treatment with dimenadione derivative compounds. The media was aspirated and cells were washed with 1×PBS (Fisher, SH30256.01) and treated with serial dilutions ranging from 5 fM to 5 μM (1 mL/well) dimenadione derivative compounds. The treated cells were incubated at 37° C. and 5% CO2 for x hours. At each concentration, bioluminescence was measured with either a BMG Labtech clarioSTAR plate reader or an IVIS CCD camera system. Any changes in cell bioluminescence were recorded as photons/per well. […] The relative change in light output was measured between each treatment and the vehicle control at each timepoint. The amount of light being made is proportional to metabolic activity (as measured by FMNH2 availability, which provides the same information as a traditional ATP content assay (i.e., CellTiter Glo). […]

Assay [2] concerns Human Liver cells (Hep-G2). The assay is described as follows: Cellular metabolic activity, autobioluminescent liver cells. It counts as cell-based. The settings on record: for concentration-dependent effect on cellular metabolism over time: 24 h. The method, then:
Autobioluminescent Human Epithelial Kidney cells (HEK-293, 490 Biotech) and Human Liver cells (Hep-G2, 490 Biotech) and Human primary astrocytes (490 Biotech) were seeded at 10,000 kidney cells/well, or 50,000 liver cells/well, in 96-well tissue culture treated plates (Falcon) in growth media. The growth media consists of the following: DMEM (Hyclone), 10% heat-inactivated FBS (Gibco), 1% Sodium Pyruvate (HyClone), 1% antibiotic/antimyotic (Hyclone) and 100 μg G418/ml (Gibco). Cells were grown for 2 days prior to treatment with dimenadione derivative compounds. […] The treated cells were incubated at 37° C. and 5% CO2 for x hours. At each concentration, bioluminescence was measured with either a BMG Labtech clarioSTAR plate reader or an IVIS CCD camera system. Any changes in cell bioluminescence were recorded as photons/per well. The replicates were averaged, and all conditions were normalized to background light detection (medium-only control wells). The vehicle-only controls were compared to the untreated controls to make sure there was not change in metabolic activity due to the solvent. All other treatments were then compared to the vehicle control. The relative change in light output was measured between each treatment and the vehicle control at each timepoint. The amount of light being made is proportional to metabolic activity (as measured by FMNH2 availability, which provides the same information as a traditional ATP content assay (i.e., CellTiter Glo).
5 fM to 5 μM (10 μL/well) of individual compounds solubilized in DMSO were incubated with cells in 96-well plates. The reference compound was DMSO-only vehicle control, at a final concentration of 0.1% DMSO. Importantly maximally effective concentrations of the compound, in the mid-picomolar to mid-nanomolar range, increased metabolic activity by as much as 2.5-fold. This observation aligns with the core hypothesized mechanism of the compound which has been designed to integrate into the mitochondrial ETC and improve energy production in the form of ATP in mitochondria. Increased energy production is reflected in overall cellular metabolism of the cells.

Assay [3] relates to primary astrocytes. Description: Cellular metabolic activity, autobioluminescent neuronal (astrocyte) cells. The settings on record: 24 hour period. It counts as cell-based, murine. Here is the method:
as §1

[4] abbreviates: FIG. 8A, complexed with Hematin 1:1,000, 0.5 nM-5 μM, 24-hour period post-exposure, liver cells.
Where [5] appears, read: complexed with hematin (FIG. 8A), liver cells.
[6] abbreviates: without hematin complexation (FIG. 8B), 1 pM-10 μM, liver cells.

As to `COc1cc(C)c(OC)c2ccccc12` [RLS3, 1,4-Dimethoxy-2-Methylnaphthalene], the “metabolic activity (bioluminescence) over time” value in assay [1] is reported as “increase in metabolic activity over time”; in assay [2] (FIG. 7B, Hematin:RLS3 1:1,000, 500 pM-5 μM RLS3, 14 h period post-exposure, liver cell model as printed), “increase in metabolic activity over time”; in assay [2] (setting [4]), “increase in metabolic activity over time”. The figures for the “concentration-dependent effect on cellular metabolism over time” value in assay [2] (setting [5]) and in assay [2] (setting [6]) were “seemed to show a concentration-dependent effect” and “did not”, respectively.
Turning to `COc1c(C)c(C=O)c(OC)c2ccccc12` [RLS4, 1,4-Dimethoxy-3-Methyl-2-Naphthaldehyde], the “metabolic activity (bioluminescence) over time” value in assay [2] (setting [4]) is “increase in metabolic activity over time”. Besides, the “concentration-dependent effect on cellular metabolism over time” value in assay [2] (setting [5]) was “seemed to show a concentration-dependent effect”; in assay [2] (setting [6]) it was “did not”.
In the case of `COc1c(C)c(/C=C/C(=O)/C=C(O)/C=C/c2c(C)c(OC)c3ccccc3c2OC)c(OC)c2ccccc12` [RLS5, (1E,4Z,6E)-1,7-Bis(1,4-Dimethoxy-3-methylnaphthalen-2-yl)-5-Hydroxyhepta-1,4,6-trien-3-one], the “effect on cellular metabolism” value in assay [3] (FIG. 9A, 100 pM and 1 nM RLS5 with Hematoporphyrin complexation (1:1000)) was “slight concentration dependent effect”; in assay [3] (FIG. 9B, 100 pM and 1 nM RLS5 without Hematoporphyrin complexation), “slight concentration dependent effect”.
